# Test results: publication PMC10620772, “Design, synthesis, and biological evaluation of new pyrimidine-5-carbonitrile derivatives as novel anti-cancer, dual EGFR^WT/COX-2 inhibitors with docking studies” (RSC Advances, 2023)
# Assays:
# Assay type in all cases: cell-based, human
# CCRF-CEM = test: NCI60 antitumor screening; conditions: 10 μM one-dose
# HL-60(TB) = test: NCI60 antitumor screening; conditions: 10 μM one-dose
# K-562 = test: NCI60 antitumor screening; conditions: 10 μM one-dose
# MOLT-4 = test: NCI60 antitumor screening; conditions: 10 μM one-dose
# RPMI-8226 = test: NCI60 antitumor screening; conditions: 10 μM one-dose
# SR = test: NCI60 antitumor screening; conditions: 10 μM one-dose, Table 1
# A549/ATCC = test: NCI60 antitumor screening; conditions: 10 μM one-dose
# EKVX = test: NCI60 antitumor screening; conditions: 10 μM one-dose
# HOP-62 = test: NCI60 antitumor screening; conditions: 10 μM one-dose
# HOP-92 = test: NCI60 antitumor screening; conditions: 10 μM one-dose
# NCI-H226 = test: NCI60 antitumor screening; conditions: 10 μM one-dose
# NCI-H23 = test: NCI60 antitumor screening; conditions: 10 μM one-dose
# NCI-H322M = test: NCI60 antitumor screening; conditions: 10 μM one-dose
# NCI-H460 = test: NCI60 antitumor screening; conditions: 10 μM one-dose
# NCI-H522 = test: NCI60 antitumor screening; conditions: 10 μM one-dose
# COLO 205 = test: NCI60 antitumor screening; conditions: 10 μM one-dose
# HCC-2998 = test: NCI60 antitumor screening; conditions: 10 μM one-dose
# HCT-116 = test: NCI60 antitumor screening; conditions: 10 μM one-dose
# HCT-15 = test: NCI60 antitumor screening; conditions: 10 μM one-dose
# HT29 = test: NCI60 antitumor screening; conditions: 10 μM one-dose
# KM12 = test: NCI60 antitumor screening; conditions: 10 μM one-dose
# SW-620 = test: NCI60 antitumor screening; conditions: 10 μM one-dose
# SF-268 = test: NCI60 antitumor screening; conditions: 10 μM one-dose
# SF-295 = test: NCI60 antitumor screening; conditions: 10 μM one-dose
# SF-539 = test: NCI60 antitumor screening; conditions: 10 μM one-dose
# SNB-19 = test: NCI60 antitumor screening; conditions: 10 μM one-dose
# SNB-75 = test: NCI60 antitumor screening; conditions: 10 μM one-dose
# U251 = test: NCI60 antitumor screening; conditions: 10 μM one-dose
# LOX IMVI = test: NCI60 antitumor screening; conditions: 10 μM one-dose
# MALME-3M = test: NCI60 antitumor screening; conditions: 10 μM one-dose
# M14 = test: NCI60 antitumor screening; conditions: 10 μM one-dose
# MDA-MB-435 = test: NCI60 antitumor screening; conditions: 10 μM one-dose
# SK-MEL-2 = test: NCI60 antitumor screening; conditions: 10 μM one-dose
# SK-MEL-28 = test: NCI60 antitumor screening; conditions: 10 μM one-dose
# SK-MEL-5 = test: NCI60 antitumor screening; conditions: 10 μM one-dose
# UACC-257 = test: NCI60 antitumor screening; conditions: 10 μM one-dose
# UACC-62 = test: NCI60 antitumor screening; conditions: 10 μM one-dose
# IGROV1 = test: NCI60 antitumor screening; conditions: 10 μM one-dose
# OVCAR-3 = test: NCI60 antitumor screening; conditions: 10 μM one-dose
# OVCAR-4 = test: NCI60 antitumor screening; conditions: 10 μM one-dose
# OVCAR-5 = test: NCI60 antitumor screening; conditions: 10 μM one-dose
# OVCAR-8 = test: NCI60 antitumor screening; conditions: 10 μM one-dose
# NCI/ADR-RES = test: NCI60 antitumor screening; conditions: 10 μM one-dose
# SK-OV-3 = test: NCI60 antitumor screening; conditions: 10 μM one-dose
# 786–0 = test: NCI60 antitumor screening; conditions: 10 μM one-dose
# A498 = test: NCI60 antitumor screening; conditions: 10 μM one-dose
# ACHN = test: NCI60 antitumor screening; conditions: 10 μM one-dose
# CAKI-1 = test: NCI60 antitumor screening; conditions: 10 μM one-dose
# RXF 393 = test: NCI60 antitumor screening; conditions: 10 μM one-dose
# SN12C = test: NCI60 antitumor screening; conditions: 10 μM one-dose
# TK-10 = test: NCI60 antitumor screening; conditions: 10 μM one-dose
# UO-31 = test: NCI60 antitumor screening; conditions: 10 μM one-dose
# PC-3 = test: NCI60 antitumor screening; conditions: 10 μM one-dose
# DU-145 = test: NCI60 antitumor screening; conditions: 10 μM one-dose
# MCF7 = test: NCI60 antitumor screening; conditions: 10 μM one-dose
# MDA-MB-231/ATCC = test: NCI60 antitumor screening; conditions: 10 μM one-dose
# HS 578T = test: NCI60 antitumor screening; conditions: 10 μM one-dose
# BT-549 = test: NCI60 antitumor screening; conditions: 10 μM one-dose
# T-47D = test: NCI60 antitumor screening; conditions: 10 μM one-dose
# MDA-MB-468 = test: NCI60 antitumor screening; conditions: 10 μM one-dose
# NCI60 cell lines panel = test: NCI60 antitumor screening, full panel; conditions: 10 μM one-dose, mean over NCI60
# Method: The National Cancer Institute (NCI), Bethesda, Maryland, United States, selected all of the novel synthesized compounds (2b–d, 3a–d and 4a–p) for in vitro antitumor screening at a single concentration of 10 μM toward the NCI60 cell lines panel covering leukaemia, non-small cell lungs, colon, central nervous system (CNS), melanoma, ovarian, renal, prostate, and breast cancer cells.[32–35] The data were reported as a mean graph of the percent growth of the treated cell lines and expressed as percentage growth inhibition (GI%) in Table 1 and ESI 1.
# (2) The molar concentration of the compound responsible for total growth inhibition, also known as total growth inhibition (TGI).
# Regarding subpanel selectivity toward certain cancer type, the method of determining a compound's selectivity index is to divide the full panel MG-MID (μM) value by each single subpanel. Values above six indicate high selectivity against the subpanel; moderate selectivity is denoted by values between three and six. Conversely, compounds are termed nonselective if their selectivity is less than three.[30,37]
structure (smiles),measurement,setting,value
"N#Cc1c(-c2ccc(F)cc2)nc(SCc2ccc([N+](=O)[O-])cc2)nc1N1CCOCC1 [4c, 4-(4-Fluorophenyl)-6-morpholino-2-((4-nitrobenzyl)thio) pyrimidine-5-carbonitrile]",GI%,CCRF-CEM,22.80%
same,GI%,HL-60(TB),17.28%
same,GI%,K-562,23.12%
same,GI%,K-562; Table 1,— (GI value > 70%)
same,GI%,MOLT-4,26.34%
same,GI%,RPMI-8226,19.73%
same,GI%,SR,— (GI value > 70%)
same,GI%,A549/ATCC,36.61%
same,GI%,EKVX,60.74%
same,GI%,HOP-62,65.34%
same,GI%,HOP-62; Table 1,— (GI value > 70%)
same,GI%,HOP-92,63.28%
same,GI%,NCI-H226; Table 1,76.22%
same,GI%,NCI-H23,25.17%
same,GI%,NCI-H322M,17.30%
same,GI%,NCI-H460,22.56%
same,GI%,NCI-H522,58.72%
same,GI%,COLO 205,— (GI% < 10)
same,GI%,HCC-2998,— (GI% < 10)
same,GI%,HCT-116,35.64%
same,GI%,HCT-15,27.19%
same,GI%,HT29,13.41%
same,GI%,KM12,15.07%
same,GI%,SW-620,19.46%
same,GI%,SF-268,50.66%
same,GI%,SF-295,58.52%
same,GI%,SF-539; Table 1,73.77%
same,GI%,SNB-19,53.96%
same,GI%,SNB-75; Table 1,92.38%
same,GI%,U251,44.68%
same,GI%,LOX IMVI,15.29%
same,GI%,MALME-3M,57.24%
same,GI%,M14,12.25%
same,GI%,MDA-MB-435,16.03%
same,GI%,SK-MEL-2,12.63%
same,GI%,SK-MEL-28,17.90%
same,GI%,SK-MEL-5,38.14%
same,GI%,UACC-257,45.85%
same,GI%,UACC-62,37.29%
same,GI%,IGROV1,19.45%
same,GI%,OVCAR-3,30.28%
same,GI%,OVCAR-4,42.76%
same,GI%,OVCAR-4; Table 1,— (GI value > 70%)
same,GI%,OVCAR-5,— (GI% < 10)
same,GI%,OVCAR-8,46.89%
same,GI%,NCI/ADR-RES,58.37%
same,GI%,SK-OV-3,55.46%
same,GI%,786–0,69.78%
same,GI%,786–0; Table 1,— (GI value > 70%)
same,GI%,A498,35.57%
same,GI%,ACHN,48.98%
same,GI%,CAKI-1,64.15%
same,GI%,RXF 393; Table 1,90.21%
same,GI%,SN12C,25.44%
same,GI%,TK-10,15.83%
same,GI%,UO-31,49.11%
same,GI%,PC-3,40.85%
same,GI%,DU-145,26.65%
same,GI%,MCF7,41.49%
same,GI%,MDA-MB-231/ATCC,52.93%
same,GI%,HS 578T; Table 1,84.42%
same,GI%,BT-549,41.46%
same,GI%,T-47D,44.55%
same,GI%,MDA-MB-468,49.44%
same,Mean GI%,NCI60 cell lines panel,39.54%
"N#Cc1c(-c2ccc(F)cc2)nc(SCc2ccc(F)cc2)[nH]c1=O [2b, 2-((4-Fluorobenzyl)thio)-4-(4-fluorophenyl)-6-oxo-1,6-dihydropyrimidine-5-carbonitrile]",GI%,CCRF-CEM,— (GI% < 10)
same,GI%,HL-60(TB),20.88%
same,GI%,K-562,— (GI% < 10)
same,GI%,K-562; Table 1,— ^b (GI value > 70%)
same,GI%,MOLT-4,— (GI% < 10)
same,GI%,RPMI-8226,— (GI% < 10)
same,GI%,SR,— (GI value > 70%)
same,GI%,A549/ATCC,15.77%
same,GI%,EKVX,— (GI% < 10)
same,GI%,HOP-62,16.84%
same,GI%,HOP-62; Table 1,— (GI value > 70%)
same,GI%,HOP-92,19.25%
same,GI%,NCI-H226,24.21%
same,GI%,NCI-H226; Table 1,— (GI value > 70%)
same,GI%,NCI-H23,12.73%
same,GI%,NCI-H460,13.27%
same,GI%,NCI-H522,25.94%
same,GI%,COLO 205,— (GI% < 10)
same,GI%,HCC-2998,— (GI% < 10)
same,GI%,HCT-116,33.39%
same,GI%,HCT-15,— (GI% < 10)
same,GI%,HT29,— (GI% < 10)
same,GI%,KM12,— (GI% < 10)
same,GI%,SW-620,— (GI% < 10)
same,GI%,SF-268,24.67%
same,GI%,SF-295,25.73%
same,GI%,SF-539,45.33%
same,GI%,SF-539; Table 1,— (GI value > 70%)
same,GI%,SNB-19,18.35%
same,GI%,SNB-75,23.60%
same,GI%,SNB-75; Table 1,— (GI value > 70%)
same,GI%,U251,33.40%
same,GI%,LOX IMVI,10.55%
same,GI%,MALME-3M,— (GI% < 10)
same,GI%,M14,— (GI% < 10)
same,GI%,MDA-MB-435,— (GI% < 10)
same,GI%,SK-MEL-2,— (GI% < 10)
same,GI%,SK-MEL-28,— (GI% < 10)
same,GI%,SK-MEL-5,— (GI% < 10)
same,GI%,UACC-257,— (GI% < 10)
same,GI%,UACC-62,11.33%
same,GI%,IGROV1,— (GI% < 10)
same,GI%,OVCAR-3,— (GI% < 10)
same,GI%,OVCAR-4; Table 1,73.14%
same,GI%,OVCAR-5,— (GI% < 10)
same,GI%,OVCAR-8,48.04%
same,GI%,NCI/ADR-RES,37.17%
same,GI%,SK-OV-3,26.25%
same,GI%,786–0; Table 1,84.82%
same,GI%,A498,— (GI% < 10)
same,GI%,ACHN,26.83%
same,GI%,CAKI-1,24.10%
same,GI%,RXF 393,28.91%
same,GI%,RXF 393; Table 1,— (GI value > 70%)
same,GI%,SN12C,17.08%
same,GI%,TK-10,17.90%
same,GI%,UO-31,26.71%
same,GI%,PC-3,— (GI% < 10)
same,GI%,DU-145,— (GI% < 10)
same,GI%,MCF7,— (GI% < 10)
same,GI%,MDA-MB-231/ATCC,39.26%
same,GI%,HS 578T,24.34%
same,GI%,HS 578T; Table 1,— (GI value > 70%)
same,GI%,BT-549,— (GI% < 10)
same,GI%,T-47D,25.99%
same,GI%,MDA-MB-468,14.26%
same,Mean GI%,NCI60 cell lines panel,16.01%
